# Source: patent US8952024B2, “Herbicidal pyrimidone derivatives” (E I du Pont de Nemours and Company, priority 2009, dated 2015)
# Experiments:
# Assay type in all cases: in vivo
# [1] = system: barnyardgrass (Echinochloa crus-galli); assay: Test A pre-/postemergence plant response
# How it was run: (§1)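 Seeds planted in loam soil/sand blend; test chemicals in non-phytotoxic solvent mixture with surfactant applied as directed soil spray preemergence and, concurrently, postemergence to plants 2–10 cm tall at one- to two-leaf stage. Greenhouse ~10 days; visual injury vs untreated controls, 0 (no effect) to 100 (complete control).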
# [2] = system: corn (Zea mays); assay: Test A pre-/postemergence plant response
# How it was run: as §1
# [3] = system: giant foxtail (Setaria faberii); assay: Test A pre-/postemergence plant response
# How it was run: as §1
# [4] = system: large crabgrass (Digitaria sanguinalis); assay: Test A pre-/postemergence plant response
# How it was run: as §1
# [5] = system: morningglory (Ipomoea spp.); assay: Test A pre-/postemergence plant response
# How it was run: as §1
# [6] = system: pigweed (Amaranthus retroflexus); assay: Test A pre-/postemergence plant response
# How it was run: as §1
# [7] = system: velvetleaf (Abutilon theophrasti); assay: Test A pre-/postemergence plant response
# How it was run: as §1
# [8] = system: wheat (Triticum aestivum); assay: Test A pre-/postemergence plant response
# How it was run: as §1
# [9] = system: bermudagrass (Cynodon dactylon); assay: Test B pre-/postemergence plant response; conditions: for Bermudagrass plant response rating: 0 to 100 scale, 0 no effect
# How it was run: (§2)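 Test compounds, formulated in a non-phytotoxic solvent mixture with surfactant, are applied to the soil surface (loam and sand blend) right after seeding, or sprayed over plants at the 1- to 4-leaf stage grown in peat moss/vermiculite medium. After 13 to 15 days under glasshouse conditions, each species is scored visually from 0 (no effect) to 100 (complete control) against controls.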
# [10] = system: cocklebur (Xanthium strumarium); assay: Test B pre-/postemergence plant response; conditions: for Cocklebur plant response rating: 0 to 100 scale
# How it was run: as §2
# [11] = system: wheat (Triticum aestivum); assay: Test B pre-/postemergence plant response; conditions: for Wheat plant response rating: 0 to 100 scale
# How it was run: as §2
# [12] = Postemergence, 125 g ai/ha, 0 to 100 scale where 0 is no effect and 100 is complete control
# [13] = Postemergence, 500 g ai/ha, visual injury, 0 to 100 scale (0 no effect, 100 complete control), approx. ten days
# [14] = Preemergence, 125 g ai/ha, 0 to 100 scale, 0 = no effect, 100 = complete control
# [15] = Preemergence, 500 g ai/ha, 0 to 100 scale, 0 = no effect, 100 = complete control
# [16] = Postemergence, 31 g ai/ha, 0 to 100 scale (0 no effect, 100 complete control)
# [17] = Postemergence, 125 g ai/ha, scale 0 to 100 (0 no effect, 100 complete control)
# [18] = Postemergence, 250 g ai/ha, scale 0 to 100 (0 no effect, 100 complete control), 13 to 15 days
# [19] = Postemergence, 62 g ai/ha, scale 0 to 100 (0 no effect, 100 complete control)
# [20] = Preemergence, 31 g ai/ha, scale 0 to 100 (0 no effect, 100 complete control)
# [21] = Preemergence, 62 g ai/ha, scale 0 to 100, 0 no effect, 100 complete control
# [22] = Preemergence, 125 g ai/ha, scale 0 to 100, 0 no effect, 100 complete control
# [23] = Preemergence, 250 g ai/ha, 100 complete control
# [24] = Preemergence, 125 g ai/ha, 0 to 100 scale where 0 is no effect and 100 is complete control, approximately ten days
# [25] = Postemergence, 125 g ai/ha, visual injury, 0 to 100 scale (0 no effect, 100 complete control), approx. ten days
# [26] = Postemergence, 125 g ai/ha, scale 0 (no effect) to 100 (complete control), 13 to 15 days
# [27] = Postemergence, 500 g ai/ha, 0 to 100 scale, 0 = no effect, 100 = complete control, approx. ten days
# [28] = Preemergence, 500 g ai/ha, visual injury, 0 to 100 scale (0 no effect, 100 complete control), approx. ten days
# [29] = 62 g ai/ha, postemergence, 0 is no effect, 100 is complete control, 13 to 15 days
smiles,measurement,setting,value
CCCCn1c(C2CC2)ncc(C(=O)C2=C(O)CCCC2=O)c1=O [Compound 193],"Plant response rating, Barnyardgrass",[1]; [12],90
same,Barnyardgrass plant response rating,[1]; [13],100
same,"Plant response rating, Barnyardgrass",[1]; [14],80
same,"Plant response rating, Barnyardgrass",[1]; [15],90
same,"Plant response rating, Corn",[2]; [12],10
same,Corn plant response rating,[2]; [13],40
same,"Plant response rating, Corn",[2]; [14],0
same,"Plant response rating, Corn",[2]; [15],0
same,"Plant response rating, Foxtail, Giant",[3]; [12],90
same,"Foxtail, Giant plant response rating",[3]; [13],100
same,"Plant response rating, Foxtail, Giant",[3]; [14],90
same,"Plant response rating, Foxtail, Giant",[3]; [15],90
same,"Plant response rating, Crabgrass, Large",[4]; [12],100
same,"Crabgrass, Large plant response rating",[4]; [13],100
same,"Plant response rating, Crabgrass, Large",[4]; [14],90
same,"Plant response rating, Crabgrass, Large",[4]; [15],100
same,"Plant response rating, Morningglory",[5]; [12],100
same,Morningglory plant response rating,[5]; [13],100
same,"Plant response rating, Morningglory",[5]; [14],80
same,"Plant response rating, Morningglory",[5]; [15],90
same,"Plant response rating, Pigweed",[6]; [12],100
same,Pigweed plant response rating,[6]; [13],100
same,"Plant response rating, Pigweed",[6]; [14],100
same,"Plant response rating, Pigweed",[6]; [15],100
same,"Plant response rating, Velvetleaf",[7]; [12],100
same,Velvetleaf plant response rating,[7]; [13],100
same,"Plant response rating, Velvetleaf",[7]; [14],100
same,"Plant response rating, Velvetleaf",[7]; [15],100
same,"Plant response rating, Wheat",[8]; [12],40
same,Wheat plant response rating,[8]; [13],70
same,"Plant response rating, Wheat",[8]; [14],0
same,"Plant response rating, Wheat",[8]; [15],50
same,"Plant response rating, Bermudagrass",[9]; [16],95
same,"Plant response rating, Bermudagrass",[9]; [17],100
same,"Plant response rating, Bermudagrass",[9]; [18],100
same,"Plant response rating, Bermudagrass",[9]; [19],100
same,"Plant response rating, Bermudagrass",[9]; [20],75
same,"Plant response rating, Bermudagrass",[9]; [21],95
same,"Plant response rating, Bermudagrass",[9]; [22],95
same,Bermudagrass plant response rating,[9]; [23],98
same,"Plant response rating, Cocklebur",[10]; [16],95
same,"Plant response rating, Cocklebur",[10]; [17],100
same,"Plant response rating, Cocklebur",[10]; [18],100
same,"Plant response rating, Cocklebur",[10]; [19],95
same,"Plant response rating, Cocklebur",[10]; [21],75
same,Cocklebur plant response rating,"[10]; Preemergence, 250 g ai/ha",95
same,"Plant response rating, Wheat",[11]; [16],30
same,"Plant response rating, Wheat",[11]; [18],60
same,"Plant response rating, Wheat",[11]; [19],35
same,"Plant response rating, Wheat",[11]; [20],0
same,"Plant response rating, Wheat",[11]; [21],0
same,"Plant response rating, Wheat",[11]; [22],10
same,Wheat plant response rating,"[11]; Preemergence, 250 g ai/ha",25
COCCCn1c(-c2cc(F)cc(F)c2)ncc(C(=O)C2=C(O)C3CCC(C3)C2=O)c1=O (stereo not shown) [Compound 244],"Plant response rating, Barnyardgrass",[1]; [12],90
same,Barnyardgrass plant response rating,[1]; [13],100
same,"Plant response rating, Barnyardgrass",[1]; [24],30
same,"Plant response rating, Barnyardgrass",[1]; [15],100
same,"Plant response rating, Corn",[2]; [12],40
same,Corn plant response rating,[2]; [13],80
same,"Plant response rating, Corn",[2]; [24],20
same,"Plant response rating, Corn",[2]; [15],40
same,"Plant response rating, Foxtail, Giant",[3]; [25],90
same,"Foxtail, Giant plant response rating",[3]; [13],90
same,"Plant response rating, Foxtail, Giant",[3]; [24],70
same,"Plant response rating, Foxtail, Giant",[3]; [15],100
same,"Plant response rating, Crabgrass, Large",[4]; [12],90
same,"Crabgrass, Large plant response rating",[4]; [13],90
same,"Plant response rating, Crabgrass, Large",[4]; [24],90
same,"Plant response rating, Crabgrass, Large",[4]; [15],100
same,"Plant response rating, Morningglory",[5]; [25],100
same,Morningglory plant response rating,[5]; [13],100
same,"Plant response rating, Morningglory",[5]; [24],30
same,"Plant response rating, Morningglory",[5]; [15],80
same,"Plant response rating, Pigweed",[6]; [25],100
same,Pigweed plant response rating,[6]; [13],100
same,"Plant response rating, Pigweed",[6]; [24],100
same,"Plant response rating, Pigweed",[6]; [15],100
same,"Plant response rating, Velvetleaf",[7]; [25],100
same,Velvetleaf plant response rating,[7]; [13],100
same,"Plant response rating, Velvetleaf",[7]; [24],50
same,"Plant response rating, Velvetleaf",[7]; [15],100
same,"Plant response rating, Wheat",[8]; [25],40
same,Wheat plant response rating,[8]; [13],70
same,"Plant response rating, Wheat",[8]; [24],0
same,"Plant response rating, Wheat",[8]; [15],40
same,"Plant response rating, Bermudagrass",[9]; [16],80
same,"Plant response rating, Bermudagrass",[9]; [26],100
same,"Plant response rating, Bermudagrass",[9]; [18],100
same,"Plant response rating, Bermudagrass",[9]; [19],100
same,"Plant response rating, Bermudagrass",[9]; [20],100
same,"Plant response rating, Bermudagrass",[9]; [21],100
same,"Plant response rating, Bermudagrass",[9]; [22],100
same,Bermudagrass plant response rating,[9]; [23],100
same,"Plant response rating, Cocklebur",[10]; [21],90
same,"Plant response rating, Cocklebur",[10]; [22],100
same,Cocklebur plant response rating,"[10]; Preemergence, 250 g ai/ha",100
same,"Plant response rating, Wheat",[11]; [16],60
same,"Plant response rating, Wheat",[11]; [26],85
same,"Plant response rating, Wheat",[11]; [18],95
same,"Plant response rating, Wheat",[11]; [19],80
same,"Plant response rating, Wheat",[11]; [20],0
same,"Plant response rating, Wheat",[11]; [21],0
same,"Plant response rating, Wheat",[11]; [22],5
same,Wheat plant response rating,"[11]; Preemergence, 250 g ai/ha",45
O=C1CCCC(O)=C1C(=O)c1cnc(-c2ccccc2)n(C2CCCCCC2)c1=O [Compound 130],"Plant response rating, Barnyardgrass",[1]; [12],100
same,"Plant response rating, Barnyardgrass",[1]; [27],100
same,"Plant response rating, Barnyardgrass",[1]; [14],20
same,"Plant response rating, Barnyardgrass",[1]; [28],90
same,"Plant response rating, Corn",[2]; [12],10
same,"Plant response rating, Corn",[2]; [27],50
same,"Plant response rating, Corn",[2]; [14],20
same,"Plant response rating, Corn",[2]; [28],30
same,"Plant response rating, Foxtail, Giant",[3]; [12],80
same,"Plant response rating, Foxtail, Giant",[3]; [27],90
same,"Plant response rating, Foxtail, Giant",[3]; [14],20
same,"Plant response rating, Foxtail, Giant",[3]; [28],90
same,"Plant response rating, Crabgrass, Large",[4]; [12],70
same,"Plant response rating, Crabgrass, Large",[4]; [27],100
same,"Plant response rating, Crabgrass, Large",[4]; [14],40
same,"Plant response rating, Crabgrass, Large",[4]; [28],100
same,"Plant response rating, Morningglory",[5]; [12],100
same,"Plant response rating, Morningglory",[5]; [27],100
same,"Plant response rating, Morningglory",[5]; [14],10
same,"Plant response rating, Morningglory",[5]; [28],80
same,"Plant response rating, Pigweed",[6]; [12],100
same,"Plant response rating, Pigweed",[6]; [27],100
same,"Plant response rating, Pigweed",[6]; [14],90
same,"Plant response rating, Pigweed",[6]; [28],100
same,"Plant response rating, Velvetleaf",[7]; [12],100
same,"Plant response rating, Velvetleaf",[7]; [27],100
same,"Plant response rating, Velvetleaf",[7]; [14],80
same,"Plant response rating, Velvetleaf",[7]; [28],90
same,"Plant response rating, Wheat",[8]; [12],0
same,"Plant response rating, Wheat",[8]; [27],30
same,"Plant response rating, Wheat",[8]; [14],0
same,"Plant response rating, Wheat",[8]; [28],0
same,Bermudagrass plant response rating (0 to 100 scale),[9]; [29],90
same,"Plant response rating, Bermudagrass",[9]; [16],75
same,"Plant response rating, Bermudagrass",[9]; [17],90
same,"Plant response rating, Bermudagrass",[9]; [18],95
same,Cocklebur plant response rating (0 to 100 scale),[10]; [29],95
same,"Plant response rating, Cocklebur",[10]; [16],85
same,"Plant response rating, Cocklebur",[10]; [17],95
same,"Plant response rating, Cocklebur",[10]; [18],100
same,Wheat plant response rating (0 to 100 scale),[11]; [29],5
same,"Plant response rating, Wheat",[11]; [16],5
same,"Plant response rating, Wheat",[11]; [17],5
same,"Plant response rating, Wheat",[11]; [18],10
